Laboratory results published in US8791267B2, “Biaryl PDE4 inhibitors for treating inflammatory, cardiovascular and CNS disorders” (Decode Genetics EHF, priority 2007, dated 2014).
Counter-ions that a name gives are not always drawn.

Experiments:
[1] = biological target: PDE4 (Homo sapiens, UniProt Q08499); test: In-vitro assay for PDE4 enzymes, real-time enzyme-coupled spectrophotometric assay (Table 9); type: biochemical; conditions: human PDE4D; activity class, Table 9; read-out: hPDE4D
[2] = biological target: PDE4B (Homo sapiens, UniProt Q07343); test: In-vitro assay for PDE4 enzymes, real-time enzyme-coupled spectrophotometric assay, PDE4B Activity (Table 10); type: biochemical; conditions: human PDE4B (hPDE4B), enzyme-coupled spectrophotometric assay; read-out: PDE4B Activity, hPDE4B
PDE4B, sequence (Q07343 whole entry): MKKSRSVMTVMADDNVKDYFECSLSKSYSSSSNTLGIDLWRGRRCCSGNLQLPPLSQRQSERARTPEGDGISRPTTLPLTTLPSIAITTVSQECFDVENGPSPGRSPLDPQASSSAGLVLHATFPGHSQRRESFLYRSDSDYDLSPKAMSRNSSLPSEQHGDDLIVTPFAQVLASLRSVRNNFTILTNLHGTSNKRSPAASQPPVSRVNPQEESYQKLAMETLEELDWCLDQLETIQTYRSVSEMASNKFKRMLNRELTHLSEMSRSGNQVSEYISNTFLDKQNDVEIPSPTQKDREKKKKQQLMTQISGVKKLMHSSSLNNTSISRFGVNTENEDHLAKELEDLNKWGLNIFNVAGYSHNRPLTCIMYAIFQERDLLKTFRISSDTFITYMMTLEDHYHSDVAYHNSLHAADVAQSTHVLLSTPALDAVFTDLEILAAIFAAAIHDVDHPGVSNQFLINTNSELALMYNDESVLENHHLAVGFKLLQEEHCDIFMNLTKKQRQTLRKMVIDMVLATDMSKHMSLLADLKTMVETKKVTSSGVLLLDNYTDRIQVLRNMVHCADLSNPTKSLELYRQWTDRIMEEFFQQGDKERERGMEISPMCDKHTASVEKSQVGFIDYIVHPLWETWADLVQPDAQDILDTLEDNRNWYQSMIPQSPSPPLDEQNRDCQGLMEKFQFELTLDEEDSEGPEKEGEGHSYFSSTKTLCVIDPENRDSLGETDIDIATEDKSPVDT

PDE4, sequence (Q08499 whole entry): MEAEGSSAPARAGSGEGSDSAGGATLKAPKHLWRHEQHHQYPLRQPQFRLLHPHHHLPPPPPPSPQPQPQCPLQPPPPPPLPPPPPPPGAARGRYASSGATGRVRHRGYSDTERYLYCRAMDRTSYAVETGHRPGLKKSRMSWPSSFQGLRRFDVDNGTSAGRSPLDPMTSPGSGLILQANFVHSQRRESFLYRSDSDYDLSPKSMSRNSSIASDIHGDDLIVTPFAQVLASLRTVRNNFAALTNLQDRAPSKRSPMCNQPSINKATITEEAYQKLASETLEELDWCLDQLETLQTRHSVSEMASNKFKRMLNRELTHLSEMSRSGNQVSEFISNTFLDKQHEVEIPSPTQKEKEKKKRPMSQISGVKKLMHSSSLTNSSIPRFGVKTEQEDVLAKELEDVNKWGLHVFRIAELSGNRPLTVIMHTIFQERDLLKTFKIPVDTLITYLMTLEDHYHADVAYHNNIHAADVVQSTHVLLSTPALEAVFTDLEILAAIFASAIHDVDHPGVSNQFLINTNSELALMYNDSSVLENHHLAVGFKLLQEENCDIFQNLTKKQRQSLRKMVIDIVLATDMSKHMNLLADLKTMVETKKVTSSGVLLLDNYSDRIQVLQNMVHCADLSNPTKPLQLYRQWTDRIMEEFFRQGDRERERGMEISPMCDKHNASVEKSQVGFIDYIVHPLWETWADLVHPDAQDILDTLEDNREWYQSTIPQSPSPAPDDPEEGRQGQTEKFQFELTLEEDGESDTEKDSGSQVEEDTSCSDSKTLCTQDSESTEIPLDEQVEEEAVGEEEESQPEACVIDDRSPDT

Row | Compound | IC50 [1] | IC50 [2]
1 | COc1ccc(Cc2ccc(C(C)(C)O)nc2)cc1-c1cccc(Cl)c1 [P-605, 2-[5-(3′-chloro-6-methoxy-biphenyl-3-ylmethyl)-pyridin-2-yl]-propan-2-ol HCl salt] | < 5 µM | < 5 µM
2 | COc1ccc(Cc2ccc(C#N)nc2)cc1-c1cccc(Cl)c1 [P-590, 5-(3′-chloro-6-methoxy-biphenyl-3-ylmethyl)-pyridine-2-carbonitrile] | < 5 µM | < 5 µM
3 | COc1ccc(COC2CCCC2)nc1-c1cccc([N+](=O)[O-])c1 [P-038, 6-cyclopentyloxymethyl-3-methoxy-2-(3-nitro-phenyl)-pyridine] | 5 to 20 µM | 21 to 40 µM
4 | COc1ccc(Cn2cccn2)cc1-c1cccc([N+](=O)[O-])c1 [P-077, 1-(6-Methoxy-3′-nitro-biphenyl-3-ylmethyl)-1H-pyrazole] | < 5 µM | < 5 µM
5 | COc1ccc(Cc2cnc(N3CC(O)C3)nc2)c(F)c1-c1cccc(C#N)c1 [P-417, 2′-Fluoro-3′-[2-(3-hydroxy-azetidin-1-yl)-pyrimidin-5-ylmethyl]-6′-methoxy-biphenyl-3-carbonitrile] | < 5 µM | < 5 µM
6 | COc1ccc(CN2CCCCS2(=O)=O)cc1-c1cccc([N+](=O)[O-])c1 [P-035, 2-(6-Methoxy-3′-nitro-biphenyl-3-ylmethyl)-[1,2]thiazinane 1,1-dioxide] | < 5 µM | < 5 µM
7 | COc1ccc(Cc2ccc(N3CCC3)nc2)cc1-c1cccc(Cl)c1 [P-568, 2-azetidin-1-yl-5-(3′-chloro-6-methoxy-biphenyl-3-ylmethyl)-pyridine] | < 5 µM | < 5 µM
8 | COc1ccc(Cc2cnc(N)nc2)c(F)c1-c1cccc(C(C)=O)c1 [P-281, 1-[3′-(2-Amino-pyrimidin-5-ylmethyl)-2′-fluoro-6′-methoxy-biphenyl-3-yl]-ethanone hydrochloride] | < 5 µM | < 5 µM
9 | CCNC(=O)NCc1ccc(Cc2ccc(OC)c(-c3cccc(Cl)c3)c2)cn1 [P-597, 1-[5-(3′-chloro-6-methoxy-biphenyl-3-ylmethyl)-pyridin-2-ylmethyl]-3-ethyl-urea hydrochloride] | < 5 µM | < 5 µM
10 | COc1ccc(Cn2cnc([N+](=O)[O-])c2)c(F)c1-c1cccc(Cl)c1 [P-536, 1-(3′-Chloro-2-fluoro-6-methoxy-biphenyl-3-ylmethyl)-4-nitro-1H-imidazole] | < 5 µM | < 5 µM
11 | COc1ccc(Cc2cccc(NC(N)=O)c2)cc1-c1cccc(Cl)c1 [P-270, [3-(3′-Chloro-6-methoxy-biphenyl-3-ylmethyl)-phenyl]-urea] | < 5 µM | 5 to 20 µM
12 | COc1ccc(Cc2ccc(N3CCC3C(N)=O)nc2)c(F)c1-c1cccc(Cl)c1 (stereo not drawn) [P-571, 1-[5-(3′-chloro-2-fluoro-6-methoxy-biphenyl-3-ylmethyl)-pyridin-2-yl]-azetidine-2-carboxylic acid amide] | < 5 µM | < 5 µM
13 | COc1ccc(Cc2ccc(CN3CCN(C)C3=O)nc2)c(F)c1-c1cccc(Cl)c1 [P-375, 1-[5-(3′-Chloro-2-fluoro-6-methoxy-biphenyl-3-ylmethyl)-pyridin-2-ylmethyl]-3-methyl-imidazolidin-2-one] | < 5 µM | < 5 µM
14 | COc1ccc(Cc2ccc(CN3CCNC3=O)nc2)c(F)c1-c1cccc(Cl)c1 [P-374, 1-[5-(3′-Chloro-2-fluoro-6-methoxy-biphenyl-3-ylmethyl)-pyridin-2-ylmethyl]-imidazolidin-2-one] | < 5 µM | < 5 µM
15 | CC(=O)Nc1ccc(Cc2ccc(O)c(-c3cccc(Br)c3)c2F)cc1 [P-620] | < 5 µM | 21 to 40 µM
16 | COc1ccc(CN2CCCC2=O)cc1-c1cccc(-c2nnco2)c1 [P-186] | 20 to 40 µM | 21 to 40 µM
17 | COc1ccc(COC2=CC(=O)CC2)cc1-c1cccc(C(F)(F)F)c1 [P-091, 3-(6-Methoxy-3′-trifluoromethyl-biphenyl-3-ylmethoxy)-cyclopent-2-enone] | < 5 µM | 21 to 40 µM
18 | COc1ccc(Cn2cc(C(N)=O)ccc2=O)cc1-c1cccc([N+](=O)[O-])c1 [P-212, 1-(6-Methoxy-3′-nitro-biphenyl-3-ylmethyl)-6-oxo-1,6-dihydro-pyridine-3-carboxylic acid amide] | 5 to 20 µM | 5 to 20 µM
19 | COc1ccc(COc2ccc(N)cc2)c(F)c1-c1cccc(Br)c1 [P-199] | < 5 µM | < 5 µM
20 | COc1ccc(Cc2ccc3nc(C(N)=O)cn3c2)c(F)c1-c1cccc(Cl)c1 [P-429, 6-(3′-chloro-2-fluoro-6-methoxy-biphenyl-3-ylmethyl)-imidazo[1,2-a]pyridine-2-carboxylic acid amide] | < 5 µM | < 5 µM
21 | COc1ccc(Cc2ccc(N)c(O)c2)c(F)c1-c1cccc(Cl)c1 [P-256] | < 5 µM | 5 to 20 µM
22 | CC(=O)Nc1ccc(Cc2ccc(OC(F)F)c(-c3cccc(Br)c3)c2F)cc1 [P-313] | < 5 µM | < 5 µM
23 | COc1ccc(Cc2ccnc(N3CCN(C(N)=O)CC3)c2)c(F)c1-c1cccc(Cl)c1 [P-518, 4-[4-(3′-Chloro-2-fluoro-6-methoxy-biphenyl-3-ylmethyl)-pyridin-2-yl]-piperazine-1-carboxylic acid amide] | < 5 µM | < 5 µM

Row | Compound | IC50 [1] | IC50 [2]
24 | COc1ccc(COC(C)C)nc1-c1cccc([N+](=O)[O-])c1 [P-030, 6-isopropoxymethyl-3-methoxy-2-(3-nitro-phenyl)-pyridine] | 5 to 20 µM | 21 to 40 µM
25 | COc1ccc(COc2ccccn2)cc1-c1cccc([N+](=O)[O-])c1 [P-224, 2-(6-Methoxy-3′-nitro-biphenyl-3-ylmethoxy)-pyridine] | 5 to 20 µM | 5 to 20 µM
26 | COc1ccc(Cn2ccnc2)cc1-c1ccc2c(c1)OCO2 [P-037, 1-(3-Benzo[1,3]dioxol-5-yl-4-methoxy-benzyl)-1H-imidazole] | < 5 µM | < 5 µM
27 | COc1ccc(Cn2ccc(N)cc2=O)cc1-c1cccc([N+](=O)[O-])c1 [P-215, 4-Amino-1-(6-methoxy-3′-nitro-biphenyl-3-ylmethyl)-1H-pyridin-2-one] | 5 to 20 µM | 5 to 20 µM
28 | COc1ccc(C(O)c2ccc(F)cc2)cc1-c1cccc(-c2nnco2)c1 (stereo not drawn) [P-117, (4-Fluoro-phenyl)-(6-methoxy-3′-[1,3,4]oxadiazol-2-yl-biphenyl-3-yl)-methanol] | < 5 µM | 21 to 40 µM
29 | COc1ccc(Nc2ccc(N)cc2)cc1-c1cccc(Cl)c1 [P-280, N-(3′-Chloro-6-methoxy-biphenyl-3-yl)-benzene-1,4-diamine; hydrochloride] | < 5 µM | < 5 µM
30 | COc1ccc(Cc2cccnc2)c(O)c1-c1cccc([N+](=O)[O-])c1 [P-106] | < 5 µM | < 5 µM
31 | COc1ccc(Cc2ccc(CN)nc2)cc1-c1cccc(Cl)c1 [P-591, C-[5-(3′-chloro-6-methoxy-biphenyl-3-ylmethyl)-pyridin-2-yl]-methylamine hydrochloride] | < 5 µM | < 5 µM
32 | COc1ccc(Cn2cc(-c3ccccn3)cn2)c(F)c1-c1cccc(Cl)c1 [P-527, 2-[1-(3′-Chloro-2-fluoro-6-methoxy-biphenyl-3-ylmethyl)-1H-pyrazol-4-yl]-pyridine] | < 5 µM | 5 to 20 µM
33 | COc1ccc(Cc2nnc(NC(N)=O)s2)c(F)c1-c1cccc(Cl)c1 [P-352, [5-(3′-Chloro-2-fluoro-6-methoxy-biphenyl-3-ylmethyl)-[1,3,4]thiadiazol-2-yl]-urea] | < 5 µM | < 5 µM
34 | NC(=O)Nc1ccc(Cc2ccc(OC3COC3)c(-c3cccc(Cl)c3)c2)cc1 [P-555, {4-[3′-Chloro-6-(oxetan-3-yloxy)-biphenyl-3-ylmethyl]-phenyl}-urea] | < 5 µM | < 5 µM
35 | COC(=O)Nc1nnc(Cc2ccc(OC)c(-c3cccc(Cl)c3)c2F)s1 [P-342, Methyl[5-(3′-Chloro-2-fluoro-6-methoxy-biphenyl-3-ylmethyl)-[1,3,4]thiadiazol-2-yl]-carbamate] | < 5 µM | < 5 µM
36 | COc1ccc(Cn2cncn2)cc1-c1ccc2nonc2c1 [P-481, 5-(2-Methoxy-5-[1,2,4]triazol-1-ylmethyl-phenyl)-benzo[1,2,5]oxadiazole] | < 5 µM | 5 to 20 µM
37 | CCOc1ccc(Cc2ccc(NC(N)=O)cc2)cc1-c1cccc(Cl)c1 [P-541, [4-(3′-Chloro-6-ethoxy-biphenyl-3-ylmethyl)-phenyl]-urea] | < 5 µM | < 5 µM
38 | COC(=O)c1cccc(-c2cc(Cc3ccc(F)cc3)ccc2OC)c1 [P-002] | < 5 µM | < 5 µM
39 | COc1ccc(Cn2cncn2)nc1-c1cccc([N+](=O)[O-])c1 [P-024, 3-methoxy-2-(3-nitro-phenyl)-6-[1,2,4]triazol-1-ylmethyl-pyridine] | < 5 µM | 21 to 40 µM
40 | COc1ccc(Cc2ccc(CNC(N)=O)c(F)c2)c(F)c1-c1cccc(C(C)=O)c1 [P-330] | < 5 µM | < 5 µM
41 | COc1ccc(Cc2ccc(NCCO)nc2)c(F)c1-c1cccc(Cl)c1 [P-411] | < 5 µM | < 5 µM
42 | COc1ccc(Oc2ccc(NS(C)(=O)=O)cc2)c(F)c1-c1cccc(Cl)c1 [P-254, N-[4-(3′-Chloro-2-fluoro-6-methoxy-biphenyl-3-yloxy)-phenyl]-methanesulfonamide] | 5 to 20 µM | < 5 µM
43 | CCOC(=O)Cn1nc(C)c(Cc2ccc(OC)c(-c3cccc([N+](=O)[O-])c3)c2)c1C [P-087, [4-(6-Methoxy-3′-nitro-biphenyl-3-ylmethyl)-3,5-dimethyl-pyrazol-1-yl]-acetic acid ethyl ester] | < 5 µM | < 5 µM
44 | COc1ccc(Cc2ccc(-n3cnnn3)nc2)c(F)c1-c1cccc(Cl)c1 [P-422, 5-(3′-chloro-2-fluoro-6-methoxy-biphenyl-3-ylmethyl)-2-tetrazol-1-yl-pyridine] | < 5 µM | < 5 µM
45 | COc1ccc(Cc2ccc(Cl)nc2)c(O)c1-c1cccc([N+](=O)[O-])c1 [P-126] | < 5 µM | < 5 µM
